Laboratory results reported in patent publication US10829473B2, “Modulators of the cystic fibrosis transmembrane conductance regulator protein and methods of use” (AbbVie Overseas S.Á.R.L., priority 2017, dated 2020).
Like-named read-outs stand apart in the source and are kept apart here. Marks after values point to notes of the source that are not given here.

Target: T1, F508delCFTR (Homo sapiens, UniProt P13569, DEL508-508)
T1 construct: expressed in transfected cells; host or cells: CFBE41o- human lung derived epithelial cells (CFBE41o-F508delCFTR-HRP), doxycycline-inducible
Test: Cell Surface Expression-Horse Radish Peroxidase (CSE-HRP) Assay;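 on EC50 (with co-corrector): co-corrector chromenyl benzoic acid corrector at 2 or 3 µM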
Format: cell-based
Conditions: for Maximum % activity (with co-corrector) / Emax: maximum at any tested concentration; for Emax: read-out: Maximum % activity (without co-corrector)
Procedure: A cellular assay for measuring the F508delCFTR cell surface expression after correction with test compounds either without or with a co-corrector (2 μM of 3-[(2R,4R)-4-({[1-(2,2-difluoro-1,3-benzodioxol-5-yl)cyclopropyl]carbonyl}amino)-7-methoxy-3,4-dihydro-2H-chromen-2-yl]benzoic acid), was developed in human lung derived epithelial cell line (CFBE4lo−) (Veit G et al, (2012) Mol Biol Cell. 23(21): 4188-4202). The development was achieved by expressing the F508delCFTR mutation along with a horseradish peroxidase (HRP) in the fourth exofacial loop, and then measuring the HRP activity using luminescence readout from these cells, CFBE410-F508delCFTR-HRP, that were incubated overnight with the test corrector compounds, either without or with the co-corrector. For this primary assay, the CFBE410-F508delCFTR-HRP cells were plated in 384-well plates (Greiner Bio-one; Cat 781080) at 4,000 cells/well along with 0.5 μg/mL doxycycline to induce the F508delCFTR-HRP expression and further incubated at 37° C., 5% CO2 for 68-72 hours. The test compounds were then added either without or with a co-corrector at the required concentrations and further incubated for 18-24 hours at 33° C. The highest concentration tested was 20 μM or 30 μM (GI-1 to GIII-36) with an 8-point concentration response curve using a 3-fold dilution in both the test compound without or with the co-corrector. Three replicate plates were run to determine one EC50. All plates contained negative controls (dimethyl sulfoxide, DMSO) and positive control (2 μM or 3 μM (GI-1 to GIII-36) of 3-[(2R,4R)-4-({[1-(2,2-difluoro-1,3-benzodioxol-5-yl)cyclopropyl]carbonyl}amino)-7-methoxy-3,4-dihydro-2H-chromen-2-yl]benzoic acid) as well as on-plate concentration response of the positive control. Post incubation, the plates were washed 5× times with Dulbecco's phosphate buffered saline (DPBS), followed by the addition of the HRP substrate, luminol (50 4), and measuring the HRP activity using luminescence readout on EnVision® Multilabel Plate Reader (Perkin Elmer; product number 2104-0010). The raw counts from the experiment were analyzed using Accelrys® Assay Explorer v3.3.
Z′ greater than 0.5 was used as passing quality control criteria for the plates.
The Z′ is defined as: 1−[3*SDPositve Control+3*SDNegative Control/Absolute(MeanPositive Control−MeanNegative Control)] wherein “SD” is standard deviation.
The % activity measured at each of the 8 test concentrations of the test compound added either without or with a co-corrector (2 μM or 3 μM (GI-1 to GIII-36) of 3-[(2R,4R)-4-({[1-(2,2-difluoro-1,3-benzodioxol-5-yl)cyclopropyl]carbonyl}amino)-7-methoxy-3,4-dihydro-2H-chromen-2-yl]benzoic acid) was normalized to the on-plate positive control using the following formulae: % activity (Test compound without co-corrector)=[(test compound without co-corrector response DMSO response)/(positive control response DMSO response)]*100 % activity (Test compound with co-corrector)=[(test compound with co-corrector response DMSO response)/(positive control response DMSO response)]*100
The maximum % activity achieved for the test compound either without or with a co-corrector at any tested concentration is presented in Table 6 along with the respective EC50's calculated using the following general sigmoidal curve with variable Hill slope equation (described as Model 42 in the Accelrys® Assay Explorer v3.3 software): y=(a−d)/(1+(x/c)b)+d
General sigmoidal curve with concentration, response, top, bottom, EC50 and Hill slope. This model describes a sigmoidal curve with an adjustable baseline, a. The equation can be used to fit curves where response is either increasing or decreasing with respect to the independent variable, “x”.
“x” is a concentration of drug under test.
“a” is the maximum response, and “d” is the minimum response
“c” is the inflection point (EGO for the curve. That is, “y” is halfway between the lower and upper asymptotes when x=c.
“b” is the slope-factor or Hill coefficient. […]

[1] = test compound with co-corrector
[2] = test compound with co-corrector, read-out: EC50 (with co-corrector)
[3] = test compound without co-corrector
[4] = test compound without co-corrector, read-out: EC50 (without co-corrector)
[5] = test compound alone, without co-corrector, read-out: EC50 (without co-corrector)
[6] = with co-corrector, read-out: EC50 (with co-corrector)

T1 sequence (P13569 with tags, fused parts or gaps DEL508-508): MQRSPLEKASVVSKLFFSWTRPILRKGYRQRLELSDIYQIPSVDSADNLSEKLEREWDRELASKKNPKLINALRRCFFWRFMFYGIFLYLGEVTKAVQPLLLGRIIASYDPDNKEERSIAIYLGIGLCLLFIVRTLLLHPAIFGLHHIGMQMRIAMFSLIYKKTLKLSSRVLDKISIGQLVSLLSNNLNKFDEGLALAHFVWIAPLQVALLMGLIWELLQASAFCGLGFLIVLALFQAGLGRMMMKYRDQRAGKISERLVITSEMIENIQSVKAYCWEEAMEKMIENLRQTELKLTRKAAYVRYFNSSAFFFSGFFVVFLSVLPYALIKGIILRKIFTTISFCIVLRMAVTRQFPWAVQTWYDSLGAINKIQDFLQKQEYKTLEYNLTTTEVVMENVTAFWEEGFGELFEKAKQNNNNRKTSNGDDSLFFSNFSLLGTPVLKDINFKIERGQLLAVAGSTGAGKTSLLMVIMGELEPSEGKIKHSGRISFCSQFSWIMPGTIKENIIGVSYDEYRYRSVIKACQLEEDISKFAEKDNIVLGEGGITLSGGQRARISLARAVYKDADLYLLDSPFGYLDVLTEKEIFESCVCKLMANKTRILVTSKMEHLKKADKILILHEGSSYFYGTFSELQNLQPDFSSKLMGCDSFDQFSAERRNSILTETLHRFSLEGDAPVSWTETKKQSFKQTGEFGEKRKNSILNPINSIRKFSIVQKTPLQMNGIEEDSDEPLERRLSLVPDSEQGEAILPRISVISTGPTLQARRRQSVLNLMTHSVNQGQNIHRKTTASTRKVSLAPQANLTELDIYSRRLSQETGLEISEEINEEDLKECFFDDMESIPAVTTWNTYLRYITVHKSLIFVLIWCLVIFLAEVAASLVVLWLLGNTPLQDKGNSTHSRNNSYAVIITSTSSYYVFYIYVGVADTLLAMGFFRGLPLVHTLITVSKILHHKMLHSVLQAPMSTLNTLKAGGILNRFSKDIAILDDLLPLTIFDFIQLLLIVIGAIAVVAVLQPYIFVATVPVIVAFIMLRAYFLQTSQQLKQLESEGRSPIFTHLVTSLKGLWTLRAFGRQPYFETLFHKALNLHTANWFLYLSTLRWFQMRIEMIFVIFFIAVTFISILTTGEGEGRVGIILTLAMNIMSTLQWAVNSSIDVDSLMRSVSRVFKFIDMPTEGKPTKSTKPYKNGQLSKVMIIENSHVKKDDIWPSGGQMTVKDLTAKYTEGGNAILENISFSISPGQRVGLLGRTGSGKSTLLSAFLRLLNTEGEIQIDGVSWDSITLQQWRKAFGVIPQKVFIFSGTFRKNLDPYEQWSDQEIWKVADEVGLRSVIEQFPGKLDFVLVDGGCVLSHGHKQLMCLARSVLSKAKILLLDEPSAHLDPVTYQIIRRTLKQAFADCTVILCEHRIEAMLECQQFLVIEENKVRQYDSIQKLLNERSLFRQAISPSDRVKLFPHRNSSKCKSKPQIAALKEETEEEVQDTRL

Row | SMILES | Maximum % activity (with co-corrector) [1] | EC50 [2] | Emax [3] | EC50 [4] | EC50 [5] | Maximum % activity (with co-corrector) (with co-corrector) | EC50 [6] | Emax (without co-corrector) | EC50 (without co-corrector) [3] | EC50 (with co-corrector) [1]
1 | COCC1(c2cnc(OC(C)C)c(C3(C(=O)NS(=O)(=O)c4cccc5ccccc45)CC3)c2)CC1 [Example GI-119, 1-{5-[1-(methoxymethyl)cyclopropyl]-2-[(propan-2-yl)oxy]pyridin-3-yl}-N-(naphthalene-1-sulfonyl)cyclopropane-1-carboxamide] | +++ (≥350) | < 3 µM | > 150% | < 3 µM | – | – | – | – | – | –
2 | CC(C)OC1CCN(c2ncc(C3CCC3)cc2C2(C(=O)NS(=O)(=O)c3cccc4[nH]ccc34)CC2)CC1 [Example GI-104, 1-(5-cyclobutyl-2-{4-[(propan-2-yl)oxy]piperidin-1-yl}pyridin-3-yl)-N-(1H-indole-4-sulfonyl)cyclopropane-1-carboxamide] | +++ (≥350) | < 3 µM | > 150% | < 3 µM | – | – | – | – | – | –
3 | O=C(NS(=O)(=O)c1ccc(Br)s1)C1(c2ccc(Cl)cc2Cl)CC1 [Example III-63, N-(5-bromothiophene-2-sulfonyl)-1-(2,4-dichlorophenyl)cyclopropane-1-carboxamide] | – | – | – | – | > 10 µM | ++ (≥150 and <350) | 3 to 10 µM | < 50% | – | –
4 | COc1ccc(C2CCC2)cc1C1(C(=O)NS(=O)(=O)c2cccc3ncn(C)c23)CCC1 [Example I-24, 1-(5-cyclobutyl-2-methoxyphenyl)-N-(1-methyl-1H-benzimidazole-7-sulfonyl)cyclobutane-1-carboxamide] | – | – | – | – | < 3 µM | +++ (≥350) | < 3 µM | > 150% | – | –
5 | COCCOc1cnc(OC)cc1C1(C(=O)NS(=O)(=O)c2cccc3nc(C)ccc23)CC1 [GII-46, 1-[2-methoxy-5-(2-methoxyethoxy)pyridin-4-yl]-N-(2-methylquinoline-5-sulfonyl)cyclopropane-1-carboxamide] | ++ (≥150 and <350) | 3 to 10 µM | 50 to 150% | – | – | – | – | – | ++^a | –
6 | CC(C)COc1ncc(C2CC2)cc1C1(C(=O)NS(=O)(=O)c2cccc3ncccc23)CC1 [Example GI-48, 1-[5-cyclopropyl-2-(2-methylpropoxy)pyridin-3-yl]-N-(quinoline-5-sulfonyl)cyclopropane-1-carboxamide] | +++ (≥350) | < 3 µM | > 150% | < 3 µM | – | – | – | – | – | –
7 | CCOc1ncc(CC)cc1C1(C(=O)NS(=O)(=O)c2cccc3nc(C)ccc23)CC1 [Example GI-117, 1-(2-ethoxy-5-ethylpyridin-3-yl)-N-(2-methylquinoline-5-sulfonyl)cyclopropane-1-carboxamide] | +++ (≥350) | < 3 µM | > 150% | < 3 µM | – | – | – | – | – | –
8 | O=C(NS(=O)(=O)C1CCS(=O)(=O)C1)C1(c2ccc(Cl)cc2Cl)CC1 (stereo not shown) [Example III-36, 1-(2,4-dichlorophenyl)-N-(1,1-dioxo-1λ^6-thiolane-3-sulfonyl)cyclopropane-1-carboxamide] | – | – | – | – | > 10 µM | + (<150) | > 10 µM | < 50% | – | –
9 | COc1cc(C2CCC2)cc(OC)c1C1(C(=O)NS(=O)(=O)c2cccc3ccn(C)c23)CC1 [II-66] | – | – | – | – | < 3 µM | +++ (≥350) | < 3 µM | > 150% | – | –
10 | O=C(NS(=O)(=O)c1cccc2[nH]ccc12)C1(c2cc(C3CC3)cnc2N2CCCC2)CC1 [Example GI-34, 1-[5-cyclopropyl-2-(pyrrolidin-1-yl)pyridin-3-yl]-N-(1H-indole-4-sulfonyl)cyclopropane-1-carboxamide] | +++ (≥350) | < 3 µM | > 150% | 3 to 10 µM | – | – | – | – | – | –
11 | COc1cnc(C2CC2)c(C2(C(=O)NS(=O)(=O)c3cccc4ncccc34)CC2)c1 [GII-15, 1-(2-cyclopropyl-5-methoxypyridin-3-yl)-N-(quinoline-5-sulfonyl)cyclopropane-1-carboxamide] | +++ (≥350) | 3 to 10 µM | > 150% | 3 to 10 µM | – | – | – | – | – | –
12 | Cc1ccc2c(S(=O)(=O)NC(=O)C3(c4cc(C5CCC5)cnc4N4CCN(C)CC4)CC3)cccc2n1 [GIII-32] | + (<150) | > 10 µM | < 50% | > 10 µM | – | – | – | – | – | –
13 | COc1nc(N)ccc1C1(C(=O)NS(=O)(=O)c2cccc3ncccc23)CC1 [GIII-30] | + (<150) | – | < 50% | > 10 µM | – | – | – | – | – | ++^a
14 | O=C1Cc2cc(S(=O)(=O)NC(=O)C3(c4cccc(Cl)c4)CC3)ccc2N1 [Example III-75, 1-(3-chlorophenyl)-N-(2-oxo-2,3-dihydro-1H-indole-5-sulfonyl)cyclopropane-1-carboxamide] | – | – | – | – | > 10 µM | + (<150) | > 10 µM | < 50% | – | –
15 | COc1ncc(C2CCC2)cc1C1(C(=O)NS(=O)(=O)c2cccn3nccc23)CC1 [Example I-19, 1-(5-cyclobutyl-2-methoxypyridin-3-yl)-N-(pyrazolo[1,5-a]pyridine-4-sulfonyl)cyclopropane-1-carboxamide] | – | – | – | – | < 3 µM | +++ (≥350) | < 3 µM | > 150% | – | –
16 | Cc1ccc(OC(C)C)c(C2(C(=O)NS(=O)(=O)c3cccc4nc(N)ccc34)CC2)c1 [Example I-87, N-(2-aminoquinoline-5-sulfonyl)-1-{5-methyl-2-[(propan-2-yl)oxy]phenyl}cyclopropane-1-carboxamide] | – | – | – | – | < 3 µM | +++ (≥350) | < 3 µM | > 150% | – | –
17 | Cc1cnc(OCC(C)C)c(C2(C(=O)NS(=O)(=O)c3cccc4[nH]ccc34)CC2)c1 [Example GI-44, N-(1H-indole-4-sulfonyl)-1-[5-methyl-2-(2-methylpropoxy)pyridin-3-yl]cyclopropane-1-carboxamide] | +++ (≥350) | < 3 µM | > 150% | < 3 µM | – | – | – | – | – | –
18 | CC(C)(C)OC(=O)N1CCC(C(=O)NS(=O)(=O)c2cccc3ccccc23)(c2ccc(F)cc2)CC1 [Example III-89, tert-butyl 4-(4-fluorophenyl)-4-[(naphthalene-1-sulfonyl)carbamoyl]piperidine-1-carboxylate] | – | – | – | – | 3 to 10 µM | ++ (≥150 and <350) | < 3 µM | < 50% | – | –
19 | COc1ccc(C23CC(C2)C3)cc1C1(C(=O)NS(=O)(=O)c2cccc3c2CCCN3)CC1 [Example III-101, 1-[5-(bicyclo[1.1.1]pentan-1-yl)-2-methoxyphenyl]-N-(1,2,3,4-tetrahydroquinoline-5-sulfonyl)cyclopropane-1-carboxamide] | – | – | – | – | < 3 µM | +++ (≥350) | < 3 µM | > 150% | – | –
